# Where a SMILES comes first, the peptide text is derived from it.
# Legend:
# [1] = DPR aggregate formation in HEK lysate (pellet vs. supernatant, total protein); format: biochemical, human
# Protocol: Supernatant and pellet fractions (for all 5 DPRs, and control/buffer only) were prepared as in the nuclear transport assays, by adding 100 µM 10mers to 2.5 mg/ml HEK lysate in 100 µL TRB. Supernatants were boiled in Laemmli (BioRad) for 5 min. Pellets were boiled for 15 min followed by sonication in order to fully disperse aggregates for SDS-PAGE. Equal volumes of supernatant and pellet fractions were run on 4–12% Bolt Bis-Tris Plus gels (ThermoFisher), transferred to nitrocellulose membrane using an iBlot2 dry blotting system (ThermoFisher). Protein loading was analyzed by BLOT-Faststain (G-biosciences, St. Louis, MO), according to the manufacterers’ instructions. For immunodetection, membranes were blocked with 5% non-fat milk in TBST and probed by sequential incubation with the primary antibodies as detailed in the table below. Detection was by HRP-conjugated secondary antibodies/chemiluminescence using an ImageQuant LAS 4000 system (GE, Chicago, IL). To permit sequential probing of membranes without stripping, signals were quenched by incubation with prewarmed 30% H20_2 for 20 min ([Sennepin et al., 2009]). Band intensities were measured by ImageQuant software. For pellet vs. supernatant fractions, all were expressed as percent untreated control. […]
# importin β = test: DPR aggregation assay and western blot, ImpB; format: biochemical, human; conditions: for ImpB band density, Pellet / ImpB band density, Supernatant: 100 µM 10mer in 2.5 mg/ml HEK lysate, normalized to untreated HEK; for ImpB band density, % untr control: Fig 5-suppl 3C, normalized to untreated HEK on same membrane;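 on ImpB band density, % untr control: RNA rows contain added 20 µg total HEK RNA while no-RNA rows lack it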
# Protocol: Supernatant and pellet fractions (for all 5 DPRs, and control/buffer only) were prepared as in the nuclear transport assays, by adding 100 µM 10mers to 2.5 mg/ml HEK lysate in 100 µL TRB. Supernatants were boiled in Laemmli (BioRad) for 5 min. Pellets were boiled for 15 min followed by sonication in order to fully disperse aggregates for SDS-PAGE. Equal volumes of supernatant and pellet fractions were run on 4–12% Bolt Bis-Tris Plus gels (ThermoFisher), transferred to nitrocellulose membrane using an iBlot2 dry blotting system (ThermoFisher). Protein loading was analyzed by BLOT-Faststain (G-biosciences, St. Louis, MO), according to the manufacterers’ instructions. For immunodetection, membranes were blocked with 5% non-fat milk in TBST and probed by sequential incubation with the primary antibodies as detailed in the table below. Detection was by HRP-conjugated secondary antibodies/chemiluminescence using an ImageQuant LAS 4000 system (GE, Chicago, IL). To permit sequential probing of membranes without stripping, signals were quenched by incubation with prewarmed 30% H20_2 for 20 min ([Sennepin et al., 2009]). Band intensities were measured by ImageQuant software. For pellet vs. supernatant fractions, all were expressed as percent untreated control. For blots in Figure 1E, samples were run on 4–20% SDS PAGE minigels (ThermoFisher) and blotted to PVDF membranes (Immun-Blot PVDF, Bio-Rad) using the Bio-Rad TransBlot Turbo apparatus, and probed as above. The chemiluminescence signal was captured with a Bio-Rad ChemiDoc XRS+ digital imaging system.
# [2] = molecular target: importin β-mediated nuclear import of Rango (Homo sapiens, UniProt Q14974); test: Permeabilized cell nuclear import assay, Rango, mouse primary cortical neurons; format: cell-based; conditions: for Effect on Rango import, time-lapse imaging: 30 min, up to 100 µM; for Effect on Rango import at steady state: 100 µM, fixed at 2 hr
# Sequence of importin β-mediated nuclear import of Rango (Q14974 whole entry): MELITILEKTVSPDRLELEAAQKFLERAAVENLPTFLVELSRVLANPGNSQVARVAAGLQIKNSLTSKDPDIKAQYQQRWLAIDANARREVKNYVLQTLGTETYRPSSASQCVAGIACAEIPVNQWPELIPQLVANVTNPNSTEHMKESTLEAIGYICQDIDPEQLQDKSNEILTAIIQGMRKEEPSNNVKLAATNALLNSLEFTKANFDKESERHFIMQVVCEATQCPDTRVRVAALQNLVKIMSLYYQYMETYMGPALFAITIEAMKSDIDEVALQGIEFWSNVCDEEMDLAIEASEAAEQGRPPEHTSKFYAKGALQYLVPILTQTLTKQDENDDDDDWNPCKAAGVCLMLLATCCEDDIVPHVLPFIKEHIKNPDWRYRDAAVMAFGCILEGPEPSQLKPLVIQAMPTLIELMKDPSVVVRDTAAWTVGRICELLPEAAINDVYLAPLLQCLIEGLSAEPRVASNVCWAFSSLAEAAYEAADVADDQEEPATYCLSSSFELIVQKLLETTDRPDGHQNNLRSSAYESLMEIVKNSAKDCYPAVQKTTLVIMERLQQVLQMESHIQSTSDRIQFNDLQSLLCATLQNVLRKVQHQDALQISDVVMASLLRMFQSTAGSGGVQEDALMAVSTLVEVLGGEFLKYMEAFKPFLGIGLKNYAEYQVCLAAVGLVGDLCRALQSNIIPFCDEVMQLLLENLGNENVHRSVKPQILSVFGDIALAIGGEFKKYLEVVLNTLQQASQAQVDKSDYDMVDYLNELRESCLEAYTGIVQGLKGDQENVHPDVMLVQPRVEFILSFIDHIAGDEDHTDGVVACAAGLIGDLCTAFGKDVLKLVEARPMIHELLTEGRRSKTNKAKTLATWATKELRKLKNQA
# From the text: All animal procedures were approved by the Johns Hopkins Animal Care and Use Committee. Timed pregnant C57BL/6J females (Jackson Laboratory, Bar Harbor, ME) were sacrificed by cervical dislocation at E16, cortex dissociated, and cells plated at 50,000/well on poly-D-lysine/laminin-coated, optical glass-bottom 96-well plates. Growth medium consisted of Neurobasal supplemented with B27, Glutamax, and penicillin/streptomycin (Gibco/ThermoFisher). At 5–7 days in vitro, neurons were rinsed in prewarmed PBS and permeabilized for 4 min. at 37° in a hypotonic solution containing […] Tris-HCl pH 7.5 (to cause osmotic swelling) and 50–150 mg/ml BSA (for molecular crowding/mechanical support). Following permeabilization, cells were placed on ice and rinsed 2 × 5 min in transport buffer (TRB, 20 mM HEPES, 110 mM KOAc, 2 mM Mg(OAc)2, 5 mM NaOAc, 0.5 mM EGTA, 250 mM sucrose, pH 7.3, with protease inhibitor cocktail). All rinse and assay buffers were supplemented with 50 mg/mL BSA. The optimal hypotonic buffer and BSA concentration varied by batch, and was optimized prior to each set of assays for ability to permeabilize the majority of plasma membranes while maintaining nuclear exclusion of a 70 kD fluorescent dextran (ThermoFisher).
# Concentrated whole cell lysates were prepared from HEK293T cells (ATCC, mycoplasma negative and validated by STR profiling), grown in 150 mm dishes and sonicated on ice in 1X TRB in the presence of protease inhibitor cocktail (Roche). The lysates were clarified (15 min, 14000 g, 4C), snap frozen in liquid nitrogen, and stored in single use aliquots at −80C. Total HEK cell RNA was extracted using miRNEasy kits according to the manufacturers’ protocol, with DNase digestion (Qiagen). RNA concentration was measured by Nanodrop (ThermoFisher), and all 260/280 ratios were verified to be > 2.0. Energy regeneration (ER) mix consisted of 100 µM ATP, 100 µM GTP, 4 mM creatine phosphate, and 20 U/mL creatine kinase (Roche).
# Reaction mixes consisting of 2.5 mg/ml lysate, ER, fluorescent cargo (200 nM Rango and YFP-M9-CFP, 500 nM GST-GFP-NLS), Hoechst, DPRs, RNA, or inhibitors (100 µM importazole (IPZ, Millipore Sigma); 0.8 mg/mL wheat germ agglutinin (WGA, Millipore Sigma) were assembled on ice during cell permeabilization. DPRs or inhibitors were allowed to equilibrate in cell lysate for at least 30 min prior to initiation of transport. Every plate included: (1) Cargo alone: fluorescent cargo, but no ER or lysate, (2) Untreated controls: fluorescent cargo, ER, and lysate, and (3) Inhibitor: fluorescent cargo, ER, lysate, and IPZ (Rango and GST-GFP-NLS reactions) or WGA (YFP-M9-CFP). Preassembled transport reactions were then transferred onto permeabilized cells via multichannel pipette, and allowed to proceed at room temperature for 2 hr (Rango, YFP-M9-CFP) or 4 hr (GST-GFP-NLS). Cells were fixed in 4% paraformaldehyde/PBS, rinsed 2x with PBS, and transferred to 50% glycerol/PBS for immediate imaging.
# For a subset of neuron transport assays, transport was monitored live via time lapse imaging every 5 min for 30 min. In a subset of HeLa assays, transport reactions were centrifuged before use at 14,000g × 15 min to separate soluble and insoluble fractions. In another variation, the transport lysate + DPR and ER mix was allowed to preincubate on the permeabilized HeLa cells for 1 hour prior to initiation of transport, rinsed 1x with TRB, and transport initiated with fresh lysate, cargo, and ER.
# Multiple non-overlapping fields per well (4 for time-lapse imaging, 9-16 for fixed imaging), were captured at 40x on an ImageXpress Micro XLS high-content microscope (Molecular Devices, San Jose, CA), and the ratio of nuclear to cytoplasmic fluorescence intensity was calculated using the MetaXpress automated translocation-enhanced module. Raw data were filtered to exclude autofluorescence and the mean N/C ratio from wells without ER or cell lysate was subtracted from all values.
# Rps25 = test: DPR aggregation assay and western blot, Rps25; format: biochemical, human; conditions: Fig 5-suppl 3C, normalized to untreated HEK on same membrane;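 further: RNA rows contain added 20 µg total HEK RNA while no-RNA rows lack it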
# From the text: Supplement elife-51685-fig5-data1.xlsx, sheet "Figure 5-figure suppl 3" | column: Rps25
# [3] = tested on: passive nuclear influx of GFP; test: Passive import assay, GFP, permeabilized HeLa; format: cell-based, human; conditions: preincubation 30–60 min, with energy and lysate; imaged 5 min
# [4] = Pellet, no RNA (Untreated), blot 1
# [5] = Pellet, no RNA (Untreated), blot 2
# [6] = Supernatant, no RNA (Untreated), blot 1
# [7] = Supernatant, no RNA (Untreated), blot 2
"Effect on Rango import, time-lapse imaging [2]",Effect on Rango import at steady state [2],Compound,"ImpB band density, % untr control (importin β; Pellet, RNA, blot 1)","ImpB band density, % untr control (importin β; Pellet, RNA, blot 2)","ImpB band density, % untr control (importin β; [4])","ImpB band density, % untr control (importin β; [5])","ImpB band density, % untr control (importin β; Supernatant, RNA, blot 1)","ImpB band density, % untr control (importin β; Supernatant, RNA, blot 2)","ImpB band density, % untr control (importin β; [6])","ImpB band density, % untr control (importin β; [7])","Rps25 band density, % untr control (Rps25; Pellet, RNA, blot 1)","Rps25 band density, % untr control (Rps25; Pellet, RNA, blot 2)","Rps25 band density, % untr control (Rps25; [4])","Rps25 band density, % untr control (Rps25; [5])","Rps25 band density, % untr control (Rps25; Supernatant, RNA, blot 1)","Rps25 band density, % untr control (Rps25; Supernatant, RNA, blot 2)","Rps25 band density, % untr control (Rps25; [6])","Rps25 band density, % untr control (Rps25; [7])",Effect on passive nuclear influx of GFP [3],other results
no effect,only trace inhibition,GA10: Synthetic 10-mer GA dipeptide repeat with C-terminal lysine and cysteine (GAGAGAGAGAGAGAGAGAGAKC),90.07%,91.42%,90.15%,102.12%,78.71%,123.36%,89.10%,114.58%,48.52%,61.57%,84.83%,128.35%,121.04%,82.85%,112.04%,76.84%,not observed,Aggregate formation in cell lysate ([1]; transport assay lysate): did not observe GA-induced aggregate formation; NCT inhibition in permeabilized neurons ([2]; high concentrations): only minimal inhibition at high concentrations
no effect,no effect,"GPGPGPGPGPGPGPGPGPGPKC [GP10, Synthetic 10-mer GP dipeptide repeat with C-terminal lysine and cysteine]",,,,,,,,,,,,,,,,,not observed,
no effect,only trace inhibition,PA10: Synthetic 10-mer PA dipeptide repeat with C-terminal lysine and cysteine (PAPAPAPAPAPAPAPAPAPAKC),,,,,,,,,,,,,,,,,not observed,

Compound,"Effect on Rango import, time-lapse imaging [2]",Effect on Rango import at steady state [2],"ImpB band density, % untr control (importin β; Pellet, RNA, blot 1)","ImpB band density, % untr control (importin β; Pellet, RNA, blot 2)","ImpB band density, % untr control (importin β; [4])","ImpB band density, % untr control (importin β; [5])","ImpB band density, % untr control (importin β; Supernatant, RNA, blot 1)","ImpB band density, % untr control (importin β; Supernatant, RNA, blot 2)","ImpB band density, % untr control (importin β; [6])","ImpB band density, % untr control (importin β; [7])","Rps25 band density, % untr control (Rps25; Pellet, RNA, blot 1)","Rps25 band density, % untr control (Rps25; Pellet, RNA, blot 2)","Rps25 band density, % untr control (Rps25; [4])","Rps25 band density, % untr control (Rps25; [5])","Rps25 band density, % untr control (Rps25; Supernatant, RNA, blot 1)","Rps25 band density, % untr control (Rps25; Supernatant, RNA, blot 2)","Rps25 band density, % untr control (Rps25; [6])","Rps25 band density, % untr control (Rps25; [7])",Effect on passive nuclear influx of GFP [3],other results
N=C(N)NCCC[C@H](NC(=O)[C@@H]1CCCN1C(=O)[C@H](CCCNC(=N)N)NC(=O)[C@@H]1CCCN1C(=O)[C@H](CCCNC(=N)N)NC(=O)[C@@H]1CCCN1C(=O)[C@H](CCCNC(=N)N)NC(=O)[C@@H]1CCCN1C(=O)[C@H](CCCNC(=N)N)NC(=O)[C@@H]1CCCN1C(=O)[C@H](CCCNC(=N)N)NC(=O)[C@@H]1CCCN1C(=O)[C@H](CCCNC(=N)N)NC(=O)[C@@H]1CCCN1C(=O)[C@H](CCCNC(=N)N)NC(=O)[C@@H]1CCCN1C(=O)[C@H](CCCNC(=N)N)NC(=O)[C@@H]1CCCN1C(=O)[C@H](CCCNC(=N)N)NC(=O)[C@@H]1CCCN1)C(=O)O [PR10] (H-PRPRPRPRPRPRPRPRPRPR-OH; N-terminus and C-terminus assumed),dose-dependent inhibition of transport,,176.94%,208.79%,231.77%,273.94%,95.64%,121.54%,76.39%,117.49%,302.37%,467.96%,306.71%,525.42%,12.19%,16.30%,0.89%,1.06%,,"Depletion of NCT proteins from the supernatant ([1]; 100 µM): not substantially depleted from the supernatant; ImpB band density, Pellet (importin β; Blot 1): 818.3 % control; ImpB band density, Supernatant (importin β; Blot 1): 89.3 % control; ImpB band density, Pellet (importin β; Blot 2): 483.8 % control; ImpB band density, Supernatant (importin β; Blot 2): 77.0 % control"
